In patent US4895589A, “Heterocyclic compounds” (Imperial Chemical Industries PLC, priority 1985, dated 1990):
Converted amounts (≈) assume the structure as drawn.

Experiments:
Lettuce = conditions: LT, 4000 ppm, 2-3 weeks
Experimental: (§1) The compounds were tested for plant growth regulator activity against up to tweleve plant species for various growth effects relevant to plant growth regulation.
(§2) Each chemical was applied at 4000 ppm (4 kg/ha in a 1000 l/ha field volume) using a tracksprayer and a SS8004E (Teejet) nozzle.
(§3) After spray, the plants were grown in a glasshouse with 25° C. day/22° C. night temperatures and supplementary lighting was supplied when necessary (from mercury vapour lamps), to provide a 16 hour photoperiod. The exception to this were the temperate cereals, wheat and barley, which were grown in 16° C. day 13° C. night temperatures
(§4) After 2-3 weeks in the glasshouse, depending on the time of year, the plants were visually assessed for morphological characteristics. Formulations blanks were used as controls to assess the Plants.

Barley = conditions: BR, 4000 ppm, 2-3 weeks
Wheat = test: Whole Plant Screen (2), wheat; assay type: in vivo, Wheat (Timmo); conditions: WW, 4000 ppm, side-by-side, Table XIII
Method in brief: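 Foliar spray at 4000 ppm (4 kg/ha in 1000 l/ha) by tracksprayer at the listed leaf stage. Plants grown in glasshouse at 25° C. day/22° C. night, 16° C./13° C. for wheat, 16 h photoperiod. Morphology visually assessed after 2-6 weeks against formulation blanks.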

Vines = conditions: VN, 4000 ppm, 2-3 weeks
Experimental: as §1, §2, §3, §4

Radish = conditions: RA, 4000 ppm, 2-3 weeks
Experimental: as §1, §2, §3, §4

[1] = tested on: plants (broad species spectrum); test: Overall plant growth regulating effects in the Examples; assay type: in vivo; conditions: 1000 ppm rate
Solubility in water = assay type: physicochemical
Half life in soil = assay type: physicochemical
Maize = conditions: MZ, 4000 ppm, 2-3 weeks
Experimental: as §1, §2, §3, §4

solubility (Solubility in water) | half-life (Half life in soil) | Compound | Retardation score (1-3) with greening (G), apical damage (A), tillering/side shooting (T) (Lettuce) | Retardation score (1-3) with greening (G), apical damage (A), tillering/side shooting (T) (Barley) | G = Greening effect (Wheat) | T = Tillering or side shooting (Wheat) | Retardation score (1-3) with greening (G), apical damage (A), tillering/side shooting (T) (Vines) | Retardation score (1-3) with greening (G), apical damage (A), tillering/side shooting (T) (Radish) | retardant activity on barley and rice versus apples [1] | Retardation score (1-3) with greening (G), apical damage (A), tillering/side shooting (T) (Maize)
– | – | CC(C)CC#CC(O)(Cn1cncn1)C(C)(C)C (stereo not drawn) [Compound 7, 2,2-dimethyl-3-hydroxy-3-(4-methyl-pent-1-yne-1-yl)-4-(1,2,4-triazol-1-yl)-butane] | 1G | 2GT | 1 (10-30%) | 1 (10-30%) | – | – | – | –
1900 µg/mL (≈ 7.62 mM) | 7 to 14 days | CCCCC#CC(O)(Cn1cncn1)C(C)(C)C (stereo not drawn) [Compound 1, 2,2-dimethyl-3-hydroxy-3-(hex-1-yne-1-yl)-4-(1,2,4-triazol-1-yl)-butane] | – | 3T | – | 1 (10-30%) | 1GT | 2G | considerably more active as a cereal retardant on barley and rice than as a woody species retardant on apples | 2GA
